Values of other authors, collected in patent US11957723B2, “Methods and uses of microbiome compositions, components, or metabolites for treating neurodegenerative diseases” (MarvelBiome, Inc., priority 2021, dated 2024).

Tested on: ALS patients

Nc1nc2ccc(OC(F)(F)F)cc2s1 [Riluzole]
life span expansion (ALS patients in the early stages): about a three-month life span expansion | therapeutic benefit (ALS patients in the late stages): no therapeutic benefit
